The NIST ThermoML archive (doi:10.1021/je8003595)
± gives the expanded uncertainty stated by the source.

Assay: mn = molality of the nth substance listed, in mol/kg
Conditions: 101 kPa, Liquid; for viscosity: Capillary tube (Ostwald / Ubbelohde) method

`O=C(Oc1ccccc1)c1ccccc1O` [phenyl salicylate] + CC#N showed a viscosity (293.15 K, m1 = 0.0096) of 0.3086 ± 0.0065 mPa·s, a viscosity (293.15 K, m1 = 0.0128) of 0.3087 ± 0.0065 mPa·s and a viscosity (293.15 K, m1 = 0.016) of 0.3088 ± 0.0065 mPa·s. It also gave a viscosity (293.15 K, m1 = 0.0192) of 0.3091 ± 0.0065 mPa·s, a viscosity (293.15 K, m1 = 0.0224) of 0.3092 ± 0.0065 mPa·s and a viscosity (293.15 K, m1 = 0.0257) of 0.3094 ± 0.0065 mPa·s. The viscosity (293.15 K, m1 = 0.0321) was 0.3097 ± 0.0065 mPa·s, the mass density (293.15 K, m1 = 0.0096) was 783.179 ± 0.5 kg/m3 and the mass density (293.15 K, m1 = 0.0128) was 783.379 ± 0.5 kg/m3. It also gave a mass density (293.15 K, m1 = 0.016) of 783.559 ± 0.5 kg/m3, a mass density (293.15 K, m1 = 0.0192) of 783.709 ± 0.5 kg/m3 and a mass density (293.15 K, m1 = 0.0224) of 783.871 ± 0.5 kg/m3. For the same compound, the mass density (293.15 K, m1 = 0.0257) was 784.031 ± 0.5 kg/m3, the mass density (293.15 K, m1 = 0.0321) was 784.222 ± 0.49 kg/m3 and the viscosity (298.15 K, m1 = 0.0097) was 0.2867 ± 0.0065 mPa·s. For the same compound, the viscosity (298.15 K, m1 = 0.0129) was 0.2869 ± 0.0065 mPa·s, the viscosity (298.15 K, m1 = 0.0161) was 0.2871 ± 0.0065 mPa·s and the viscosity (298.15 K, m1 = 0.0194) was 0.2873 ± 0.0065 mPa·s. The viscosity (298.15 K, m1 = 0.0226) was 0.2875 ± 0.0065 mPa·s, the viscosity (298.15 K, m1 = 0.0258) was 0.2876 ± 0.0065 mPa·s and the viscosity (298.15 K, m1 = 0.0323) was 0.288 ± 0.0065 mPa·s. It also gave a mass density (298.15 K, m1 = 0.0097) of 777.771 ± 0.51 kg/m3, a mass density (298.15 K, m1 = 0.0129) of 777.981 ± 0.51 kg/m3 and a mass density (298.15 K, m1 = 0.0161) of 778.151 ± 0.51 kg/m3. It also gave a mass density (298.15 K, m1 = 0.0194) of 778.309 ± 0.51 kg/m3, a mass density (298.15 K, m1 = 0.0226) of 778.451 ± 0.51 kg/m3 and a mass density (298.15 K, m1 = 0.0258) of 778.609 ± 0.5 kg/m3. For the same compound, the mass density (298.15 K, m1 = 0.0323) was 778.835 ± 0.5 kg/m3, the viscosity (303.15 K, m1 = 0.0097) was 0.2649 ± 0.0064 mPa·s and the viscosity (303.15 K, m1 = 0.013) was 0.265 ± 0.0064 mPa·s. For the same compound, the viscosity (303.15 K, m1 = 0.0162) was 0.2652 ± 0.0064 mPa·s, the viscosity (303.15 K, m1 = 0.0195) was 0.2653 ± 0.0064 mPa·s and the viscosity (303.15 K, m1 = 0.0227) was 0.2655 ± 0.0064 mPa·s. The viscosity (303.15 K, m1 = 0.026) was 0.2656 ± 0.0064 mPa·s, the viscosity (303.15 K, m1 = 0.0326) was 0.2659 ± 0.0064 mPa·s and the mass density (303.15 K, m1 = 0.0097) was 772.334 ± 0.52 kg/m3. The mass density (303.15 K, m1 = 0.013) was 772.545 ± 0.52 kg/m3, the mass density (303.15 K, m1 = 0.0162) was 772.724 ± 0.51 kg/m3 and the mass density (303.15 K, m1 = 0.0195) was 772.856 ± 0.51 kg/m3. The mass density (303.15 K, m1 = 0.0227) was 773.025 ± 0.51 kg/m3, the mass density (303.15 K, m1 = 0.026) was 773.165 ± 0.51 kg/m3 and the mass density (303.15 K, m1 = 0.0326) was 773.351 ± 0.51 kg/m3. It also gave a viscosity (308.15 K, m1 = 0.0098) of 0.2453 ± 0.0064 mPa·s, a viscosity (308.15 K, m1 = 0.0131) of 0.2455 ± 0.0064 mPa·s and a viscosity (308.15 K, m1 = 0.0164) of 0.2457 ± 0.0064 mPa·s. For the same compound, the viscosity (308.15 K, m1 = 0.0197) was 0.2459 ± 0.0064 mPa·s, the viscosity (308.15 K, m1 = 0.023) was 0.2461 ± 0.0064 mPa·s and the viscosity (308.15 K, m1 = 0.0263) was 0.2463 ± 0.0064 mPa·s. The viscosity (308.15 K, m1 = 0.0329) was 0.2466 ± 0.0064 mPa·s, the mass density (308.15 K, m1 = 0.0098) was 766.875 ± 0.52 kg/m3 and the mass density (308.15 K, m1 = 0.0131) was 767.071 ± 0.52 kg/m3. For the same compound, the mass density (308.15 K, m1 = 0.0164) was 767.241 ± 0.52 kg/m3, the mass density (308.15 K, m1 = 0.0197) was 767.385 ± 0.52 kg/m3 and the mass density (308.15 K, m1 = 0.023) was 767.558 ± 0.52 kg/m3. For the same compound, the mass density (308.15 K, m1 = 0.0263) was 767.695 ± 0.52 kg/m3, the mass density (308.15 K, m1 = 0.0329) was 767.859 ± 0.52 kg/m3 and the viscosity (310.15 K, m1 = 0.0098) was 0.238 ± 0.0064 mPa·s. The viscosity (310.15 K, m1 = 0.0131) was 0.2381 ± 0.0064 mPa·s, the viscosity (310.15 K, m1 = 0.0164) was 0.2382 ± 0.0064 mPa·s and the viscosity (310.15 K, m1 = 0.0197) was 0.2384 ± 0.0064 mPa·s. The viscosity (310.15 K, m1 = 0.023) was 0.2385 ± 0.0064 mPa·s, the viscosity (310.15 K, m1 = 0.0263) was 0.2386 ± 0.0064 mPa·s and the viscosity (310.15 K, m1 = 0.0329) was 0.2388 ± 0.0064 mPa·s. The mass density (310.15 K, m1 = 0.0098) was 764.642 ± 0.53 kg/m3, the mass density (310.15 K, m1 = 0.0131) was 764.835 ± 0.53 kg/m3 and the mass density (310.15 K, m1 = 0.0164) was 765.015 ± 0.53 kg/m3. For the same compound, the mass density (310.15 K, m1 = 0.0197) was 765.153 ± 0.53 kg/m3, the mass density (310.15 K, m1 = 0.023) was 765.331 ± 0.53 kg/m3 and the mass density (310.15 K, m1 = 0.0263) was 765.465 ± 0.52 kg/m3. It also gave a mass density (310.15 K, m1 = 0.0329) of 765.629 ± 0.52 kg/m3, a viscosity (313.15 K, m1 = 0.0099) of 0.2272 ± 0.0063 mPa·s and a viscosity (313.15 K, m1 = 0.0132) of 0.2274 ± 0.0063 mPa·s. It also gave a viscosity (313.15 K, m1 = 0.0165) of 0.2276 ± 0.0063 mPa·s, a viscosity (313.15 K, m1 = 0.0198) of 0.2278 ± 0.0063 mPa·s and a viscosity (313.15 K, m1 = 0.0231) of 0.2279 ± 0.0063 mPa·s. It also gave a viscosity (313.15 K, m1 = 0.0264) of 0.228 ± 0.0063 mPa·s, a viscosity (313.15 K, m1 = 0.033) of 0.2282 ± 0.0063 mPa·s and a mass density (313.15 K, m1 = 0.0099) of 761.351 ± 0.53 kg/m3. It also gave a mass density (313.15 K, m1 = 0.0132) of 761.545 ± 0.53 kg/m3, a mass density (313.15 K, m1 = 0.0165) of 761.711 ± 0.53 kg/m3 and a mass density (313.15 K, m1 = 0.0198) of 761.849 ± 0.53 kg/m3. It also gave a mass density (313.15 K, m1 = 0.0231) of 762.019 ± 0.53 kg/m3, a mass density (313.15 K, m1 = 0.0264) of 762.135 ± 0.53 kg/m3 and a mass density (313.15 K, m1 = 0.033) of 762.341 ± 0.53 kg/m3.
